System: HIV-1 single-round infectious reporter virus
Assay: Single-round infectious HIV-1 luciferase reporter virus infection of HeLa CD4 CCR5 cells
Assay type: cell-based
Settings: Human immunodeficiency virus 1, HeLa-CD4/CCR5, 72 h, read-out: EC50 Group from Table 1
Protocol: • Virus production—Human embryonic Kidney cell line, 293, propagated in Dulbecco's Modified Eagle Medium (Life Technologies, Gaithersburg, Md.) containing 10% fetal Bovine serum (FBS, Sigma, St. Louis, Mo.). • Virus infection—Human epithelial cell line, HeLa, expressing the HIV-1 receptors CD4 and CCR5 was propagated in Dulbecco's Modified Eagle Medium (Life Technologies, Gaithersburg, Md.) containing 10% fetal Bovine serum (FBS, Sigma, St. Louis, Mo.) and supplemented with 0.2 mg/mL Geneticin (Life Technologies, Gaithersburg, Md.) and 0.4 mg/mL Zeocin (Invitrogen, Carlsbad, Calif.). Virus-Single-round infectious reporter virus was produced by co-transfecting human embryonic Kidney 293 cells with an HIV-1 envelope DNA expression vector and a proviral cDNA containing an envelope deletion mutation and the luciferase reporter gene inserted in place of HIV-1 nef sequences (Chen et al, Ref 41). Transfections were performed using lipofectAMINE PLUS reagent as described by the manufacturer (Life Technologies, Gaithersburg, Md.). Experiment • 1. Compound was added to HeLa CD4 CCR5 cells plated in 96 well plates at a cell density of 1×10^4 cells per well in 100 μl Dulbecco's Modified Eagle Medium containing 10% fetal Bovine serum at a concentration of <20 μM. • 2. 100 μl of single-round infectious reporter virus in Dulbecco's Modified Eagle Medium was then added to the plated cells and compound at an approximate multiplicity of infection (MOI) of 0.01, resulting in a final volume of 200 μl per well and a final compound concentration of <10 μM. • 3. Samples were harvested 72 h after infection. • 4. Viral infection was monitored by measuring luciferase expression from viral DNA in the infected cells using a luciferase reporter gene assay kit (Roche Molecular Biochemicals, Indianapolis, Ind.). Infected cell supernatants were removed and 50 μl of Dulbecco's Modified Eagle Medium (without phenol red) and 50 μl of luciferase assay reagent reconstituted as described by the manufacturer (Roche Molecular Biochemicals, Indianapolis, Ind.) was added per well. Luciferase activity was then quantified by measuring luminescence using a Wallac microbeta scintillation counter. • 5. The percent inhibition for each compound was calculated by quantifying the level of luciferase expression in cells infected in the presence of each compound as a percentage of that observed for cells infected in the absence of compound and subtracting such a determined value from 100. • 6. An EC50 provides a method for comparing the antiviral potency of the compounds of this invention. The effective concentration for fifty percent inhibition (EC50) was calculated with the Microsoft Excel Xlfit curve fitting software. For each compound, curves were generated from percent inhibition calculated at 10 different concentrations by using a four paramenter logistic model (model 205). Table 1 is the key for the data in Tables 2-4.

Compound	EC50 [nM]
N#CC(C(=O)c1c[nH]c2c(Cl)ncnc12)N1CCN(C(=O)c2ccccc2)CC1 (stereo not shown) [Example 1, 2-(4-Benzoyl-piperazin-1-yl)-3-(4-chloro-5H-pyrrolo [3,2-d]pyrimidin-7-yl)-3-oxo-propionitrile]	< 1000
O=C(C(=O)N1CCN(C(=O)c2ccccc2)CC1)c1c[nH]c2c(Cl)ncnc12 [Example 2, 1-(4-Benzoyl-piperazin-1-yl)-2-(4-chloro-5H-pyrrolo[3,2-d]pyrimidin-7-yl)-ethane-1,2-dione]	< 1000
Cc1ccn(-c2ncnc3c(C(=O)C(=O)N4CCN(C(=O)c5ccccc5)CC4)c[nH]c23)n1 [Example 3, 1-(4-Benzoyl-piperazin-1-yl)-2-[4-(3-methyl-pyrazol-1-yl)-5H-pyrrolo[3,2-d]pyrimidin-7-yl]-ethane-1,2-dione]	< 1000
Cc1cnn(-c2ncnc3c(C(=O)C(=O)N4CCN(C(=O)c5ccccc5)CC4)c[nH]c23)c1 [Example 4, 1-(4-Benzoyl-piperazin-1-yl)-2-[4-(4-methyl-pyrazol-1-yl)-5H-pyrrolo[3,2-d]pyrimidin-7-yl]-ethane-1,2-dione]	< 1000
COc1ncnc2c(C(=O)C(=O)N3CCN(C(=O)c4ccccc4)CC3)c[nH]c12 [Example 5, 1-(4-Benzoyl-piperazin-1-yl)-2-(4-methoxy-5H-pyrrolo[3,2-d]pyrimidin-7-yl)-ethane-1,2-dione]	< 1000
O=C(C(=O)N1CCN(C(=O)c2ccccc2)CC1)c1c[nH]c2c(-n3cccn3)ncnc12 [Example 6, 1-(4-Benzoyl-piperazin-1-yl)-2-(4-pyrazol-1-yl-5H -pyrrolo[3,2-d]pyrimidin-7-yl)-ethane-1,2-dione]	< 1000
Cc1ncn(-c2ncnc3c(C(=O)C(=O)N4CCN(C(=O)c5ccccc5)CC4)c[nH]c23)n1 [Example 7, 1-(4-Benzoyl-piperazin-1-yl)-2-[4-(3-methyl-[1,2,4]triazol-1-yl)-5H-pyrrolo[3,2-d]pyrimidin-7-yl]-ethane-1,2-dione]	< 1000
O=C(C(=O)N1CCN(C(=O)c2ccccc2)CC1)c1c[nH]c2c(-n3nccn3)ncnc12 [Example 8, 1-(4-(2H-1,2,3-Triazol-2-yl)-5H-pyrrolo[3,2-d]pyrimidin-7-yl)-2-(4-benzoylpiperazin-1-yl)ethane-1,2-dione]	< 1000
O=C(O)c1ccn(-c2ncnc3c(C(=O)C(=O)N4CCN(C(=O)c5ccccc5)CC4)c[nH]c23)n1 [Example 9, 1-{7-[2-(4-Benzoyl-piperazin-1-yl)-2-oxo-acetyl]-5H-pyrrolo[3,2-d]pyrimidin-4-yl}-1H-pyrazole-3-carboxylic Acid]	< 1000
CCOc1ncnc2c(C(=O)C(=O)N3CCN(C(=O)c4ccccc4)CC3)c[nH]c12 [Example 10, 1-(4-Benzoylpiperazin-1-yl)-2-(4-ethoxy-5H-pyrrolo[3,2-d]pyrimidin-7-yl)ethane-1,2-dione]	< 1000
CC(=O)c1ncnc2c(C(=O)C(=O)N3CCN(C(=O)c4ccccc4)CC3)c[nH]c12 [Example 11, 1-(4-Acetyl-5H-pyrrolo[3,2-d]pyrimidin-7-yl)-2-(4-benzoylpiperazin-1-yl)ethane-1,2-dione]	< 1000
N#Cc1ncnc2c(C(=O)C(=O)N3CCN(C(=O)c4ccccc4)CC3)c[nH]c12 [Example 12, 7-(2-(4-Benzoylpiperazin-1-yl)-2-oxoacetyl)-5H-pyrrolo[3,2-d]pyrimidine-4-carbonitrile]	< 1000
CN(C)C(=O)c1ccn(-c2ncnc3c(C(=O)C(=O)N4CCN(C(=O)c5ccccc5)CC4)c[nH]c23)n1 [Example 13, 1-(7-(2-(4-Benzoylpiperazin-1-yl)-2-oxoacetyl)-5H -pyrrolo[3,2-d]pyrimidin-4-yl)-N,N-dimethyl-1H-pyrazole-3-carboxamide]	< 1000
CN1CCN(C(=O)c2ccn(-c3ncnc4c(C(=O)C(=O)N5CCN(C(=O)c6ccccc6)CC5)c[nH]c34)n2)CC1 [Example 14, 1-(4-Benzoylpiperazin-1-yl)-2-(4-(3-(1-methylpiperazine-4-carbonyl)-1H-pyrazol-1-yl)-5H-pyrrolo[3,2-d]pyrimidin-7-yl)ethane-1,2-dione]	< 1000
O=C(C(=O)N1CCN(C(=O)c2ccccc2)CC1)c1c[nH]c2c(-n3ccc(-c4ccccc4)n3)ncnc12 [Example 15, 1-(4-Benzoylpiperazin-1-yl)-2-(4-(3-phenyl-1H -pyrazol-1-yl)-5H-pyrrolo[3,2-d]pyrimidin-7-yl)ethane-1,2-dione]	< 1000
O=C(C(=O)N1CCN(C(=O)c2ccccc2)CC1)c1c[nH]c2c(-n3ccc(-c4ccc(F)cc4)n3)ncnc12 [Example 16, 1-(4-Benzoylpiperazin-1-yl)-2-(4-(3-(4-fluorophenyl)-1H-pyrazol-1-yl)-5H-pyrrolo[3,2-d]pyrimidin-7-yl)ethane-1,2-dione]	< 1000
COc1ccc(-c2ccn(-c3ncnc4c(C(=O)C(=O)N5CCN(C(=O)c6ccccc6)CC5)c[nH]c34)n2)cc1 [Example 17, 1-(4-Benzoylpiperazin-1-yl)-2-(4-(3-(4-methoxyphenyl)-1H-pyrazol-1-yl)-5H-pyrrolo[3,2-d]pyrimidin-7-yl)ethane-1,2-dione]	< 1000
COc1ccccc1-c1ccn(-c2ncnc3c(C(=O)C(=O)N4CCN(C(=O)c5ccccc5)CC4)c[nH]c23)n1 [Example 18, 1-(4-Benzoylpiperazin-1-yl)-2-(4-(3-(2-methoxyphenyl)-1H-pyrazol-1-yl)-5H-pyrrolo[3,2-d]pyrimidin-7-yl)ethane-1,2-dione]	< 1000
O=C(C(=O)N1CCN(C(=O)c2ccccc2)CC1)c1c[nH]c2c(-n3ccc(-c4cccc(C(F)(F)F)c4)n3)ncnc12 [Example 19, 1-(4-Benzoylpiperazin-1-yl)-2-(4-(3-(3-(trifluoromethyl)phenyl)-1H-pyrazol-1-yl)-5H-pyrrolo[3,2-d]pyrimidin-7-yl)ethane-1,2-dione]	< 1000
O=C(C(=O)N1CCN(C(=O)c2ccccc2)CC1)c1c[nH]c2c(-n3cncn3)ncnc12 [Example 20, 1-(4-(1H-1,2,4-Triazol-1-yl)-5H-pyrrolo[3,2-d]pyrimidin-7-yl)-2-(4-benzoylpiperazin-1-yl)ethane-1,2-dione]	< 1000
O=C(C(=O)N1CCN(C(=O)c2ccccc2)CC1)c1c[nH]c2c(-n3ccnn3)ncnc12 [Example 21, 1-(4-(1H-1,2,3-Triazol-1-yl)-5H-pyrrolo[3,2-d]pyrimidin-7-yl)-2-(4-benzoylpiperazin-1-yl)ethane-1,2-dione]	< 1000
O=C(C(=O)N1CCN(C(=O)c2ccccc2)CC1)c1c[nH]c2c(-c3cc[nH]n3)ncnc12 [Example 22, 1-(4-(1H-Pyrazol-3-yl)-5H-pyrrolo[3,2-d]pyrimidin-7-yl)-2-(4-benzoylpiperazin-1-yl)ethane-1,2-dione]	< 1000
O=C(C(=O)N1CCN(C(=O)c2ccccc2)CC1)c1c[nH]c2c(-c3ccccn3)ncnc12 [Example 24, 1-(4-Benzoylpiperazin-1-yl)-2-(4-(pyridin-2-yl)-5H -pyrrolo[3,2-d]pyrimidin-7-yl)ethane-1,2-dione]	< 1000
O=C(C(=O)N1CCN(C(=O)c2ccccc2)CC1)c1c[nH]c2c(-c3cccnc3)ncnc12 [Example 25, 1-(4-Benzoylpiperazin-1-yl)-2-(4-(pyridin-3-yl)-5H -pyrrolo[3,2-d]pyrimidin-7-yl)ethane-1,2-dione]	< 1000
O=C(C(=O)N1CCN(C(=O)c2ccccc2)CC1)c1c[nH]c2c(-c3ccncc3)ncnc12 [Example 26, 1-(4-Benzoylpiperazin-1-yl)-2-(4-(pyridin-4-yl)-5H -pyrrolo[3,2-d]pyrimidin-7-yl)ethane-1,2-dione]	< 1000
O=C(C(=O)N1CCN(C(=O)c2ccccc2)CC1)c1c[nH]c2c(-c3cnccn3)ncnc12 [Example 27, 1-(4-Benzoylpiperazin-1-yl)-2-(4-(pyrazin-2-yl)-5H -pyrrolo[3,2-d]pyrimidin-7-yl)ethane-1,2-dione]	< 1000
O=C(C(=O)N1CCN(C(=O)c2ccccc2)CC1)c1c[nH]c2c(-c3cncnc3)ncnc12 [Example 28, 1-(4-Benzoylpiperazin-1-yl)-2-(4-(pyrimidin-5-yl)-5H-pyrrolo[3,2-d]pyrimidin-7-yl)ethane-1,2-dione]	< 1000
O=C(C(=O)N1CCN(C(=O)c2ccccc2)CC1)c1c[nH]c2c(-c3ccnnc3)ncnc12 [Example 29, 1-(4-Benzoylpiperazin-1-yl)-2-(4-(pyridazin-4-yl)-5H-pyrrolo[3,2-d]pyrimidin-7-yl)ethane-1,2-dione]	< 1000

Source: patent US7902204B2 (priority 2003, dated 2011)
